Laboratory results taken from patent publication US20260242391A1 (priority 2023, published 2026).
pEC50, pIC50: −log10 of the molar value.

Tests used:
HL-60 = HL-60 differentiation potency; assay type: cell-based; details: Homo sapiens
in vitro = details: human

pEC50 (HL-60)	pIC50 (in vitro)	SMILES
7.34	5.19	C[C@H]1[C@H](OCc2cc(C(=O)O)ccc2Cl)O[C@@H]2O[C@@]3(C)CC[C@H]4[C@H](C)CC[C@@H]1[C@@]24OO3 [Compound 168, 4-chloro-3-((((3R,5aS,6R,8aS, 9R,10R,12R, 12aR)-3,6,9-trimethyldeca-hydro-12H-3,12-epoxy[1,2]dioxepino[4,3-i]isochromen-10-yl)oxy)methyl) benzoic acid]
7.40	6.80	C[C@H]1[C@@H](Oc2ccc(C(C)(C)C(=O)O)cc2Cl)O[C@@H]2O[C@@]3(C)CC[C@H]4[C@H](C)CC[C@@H]1[C@@]24OO3 [Compound 180, 2-(3-chloro-4-(((3R,5aS,6R,8aS, 9R,10S,12R, 12aR)-3,6,9-trimethyldeca-hydro-12H-3,12-epoxy[1,2]dioxepino[4,3-i]isochromen-10-yl)oxy)phenyl)-2-methylpropanoic acid]
7.12	6.57	C[C@H]1[C@@H](OC[C@H]2CC[C@@H](CO)CC2)O[C@@H]2O[C@@]3(C)CC[C@H]4[C@H](C)CC[C@@H]1[C@@]24OO3 [Compound 156, ((1R,4s)-4-((((3R,5aS,6R, 8aS,9R,10S,12R, 12aR)-3,6,9-trimethyldeca-hydro-12H-3,12-epoxy[1,2]dioxepino[4,3-i]isochromen-10-yl)oxy)methyl)cyclohexyl) methanol]
7.06	< 4.70	C[C@H]1[C@H](OCc2c(F)cc(C(=O)O)cc2F)O[C@@H]2O[C@@]3(C)CC[C@H]4[C@H](C)CC[C@@H]1[C@@]24OO3 [Compound 137, 3,5-difluoro-4-((((3R,5aS,6R,8aS, 9R,10R,12R, 12aR)-3,6,9-trimethyldeca-hydro-12H-3,12-epoxy[1,2]dioxepino[4,3-i]isochromen-10-yl)oxy)methyl) benzoic acid]
< 4.70	< 4.70	CNC(=O)N1CCN([C@@H]2O[C@@H]3O[C@@]4(C)CC[C@H]5[C@H](C)CC[C@@H]([C@H]2C)[C@@]35OO4)CC1 [Compound 67, N-methyl-4-((3R,5aS,6R,8aS, 9R,10R,12R, 12aR)-3,6,9-trimethyldeca-hydro-12H-3,12-epoxy[1,2]dioxepino[4,3-i]isochromen-10-yl)piperazine-1-carboxamide]
6.65	< 4.70	C[C@H]1[C@@H](Oc2ccc(CC(=O)O)c(F)c2)O[C@@H]2O[C@@]3(C)CC[C@H]4[C@H](C)CC[C@@H]1[C@@]24OO3 [Compound 26, 2-(2-fluoro-4-(((3R,5aS,6R, 8aS,9R,10S,12R, 12aR)-3,6,9-trimethyldeca-hydro-12H-3,12-epoxy[1,2]dioxepino[4,3-i]isochromen-10-yl)oxy)phenyl) acetic acid]
7.28	5.54	C[C@H]1[C@@H](OCc2ccc(C(=O)NO)cc2)O[C@@H]2O[C@@]3(C)CC[C@H]4[C@H](C)CC[C@@H]1[C@@]24OO3 [Compound 5, N-hydroxy-4-((((3R,5aS,6R,8aS, 9R,10S,12R, 12aR)-3,6,9-trimethyldeca-hydro-12H-3,12-epoxy[1,2]dioxepino[4,3-i]isochromen-10-yl)oxy)methyl) benzamide]
< 4.70	< 4.70	C[C@H]1[C@H](N(C)Cc2ccc(C(=O)O)cc2)O[C@@H]2O[C@@]3(C)CC[C@H]4[C@H](C)CC[C@@H]1[C@@]24OO3 [Compound 102, 4-((methyl((3R, 5aS,6R,8aS,9R, 10R,12R,12aR)-3,6,9-trimethyldeca-hydro-12H-3,12-epoxy[1,2]dioxepino[4,3-i]isochromen-10-yl)amino)methyl) benzoic acid]
6.52	5.45	C[C@H]1[C@@H](OCc2ccc(C(N)=O)cc2)O[C@@H]2O[C@@]3(C)CC[C@H]4[C@H](C)CC[C@@H]1[C@@]24OO3 [Compound 30, 4-((((3R,5aS, 6R,8aS,9R,10S, 12R,12aR)-3,6,9-trimethyldeca-hydro-12H-3,12-epoxy[1,2]dioxepino[4,3-i]isochromen-10-yl)oxy)methyl) benzamide]
4.87	< 4.70	C[C@H]1[C@H](OCc2ccc(C(=O)O)o2)O[C@@H]2O[C@@]3(C)CC[C@H]4[C@H](C)CC[C@@H]1[C@@]24OO3 [Compound 61, 5-((((3R,5aS,6R, 8aS,9R,10R,12R, 12aR)-3,6,9-trimethyldeca-hydro-12H-3,12-epoxy[1,2]dioxepino[4,3-i]isochromen-10-yl)oxy)methyl) furan-2-carboxylic acid]
< 4.70	< 4.70	C[C@H]1[C@H](NCc2ccncc2)O[C@@H]2O[C@@]3(C)CC[C@H]4[C@H](C)CC[C@@H]1[C@@]24OO3 [Compound 98, (3R,5aS,6R,8aS, 9R,10R,12R, 12aR)-3,6,9-trimethyl-N-(pyridin-4-ylmethyl)deca-hydro-12H-3,12-epoxy[1,2] dioxepino[4,3-i] isochromen-10-amine]
5.05	< 4.70	C[C@H]1[C@@H](OCC2(C(=O)O)CCC2)O[C@@H]2O[C@@]3(C)CC[C@H]4[C@H](C)CC[C@@H]1[C@@]24OO3 [Compound 127, 1-((((3R,5aS,6R, 8aS,9R,10S,12R, 12aR)-3,6,9-trimethyldeca-hydro-12H-3,12-epoxy[1,2]dioxepino[4,3-i]isochromen-10-yl)oxy)methyl) cyclobutane-1-carboxylic acid]
7.69	7.00	C[C@H]1[C@@H](OCC2CCC(F)(F)CC2)O[C@@H]2O[C@@]3(C)CC[C@H]4[C@H](C)CC[C@@H]1[C@@]24OO3 [Compound 106, (3R,5aS,6R,8aS, 9R,10S,12R, 12aR)-10-((4,4-difluorocyclo-hexyl)methoxy)-3,6,9-trimethyldeca-hydro-12H-3,12-epoxy[1,2] dioxepino[4,3-i] isochromene]
6.89	6.57	C[C@H]1[C@@H](OCc2ccc(B(O)O)cc2)O[C@@H]2O[C@@]3(C)CC[C@H]4[C@H](C)CC[C@@H]1[C@@]24OO3 [Compound 169, (4-((((3R,5aS,6R,8aS, 9R,10S,12R, 12aR)-3,6,9-trimethyldeca-hydro-12H-3,12-epoxy[1,2]dioxepino[4,3-i]isochromen-10-yl)oxy)methyl)phenyl)boronic acid]
4.78	< 4.70	C[C@H]1[C@H](CCNS(C)(=O)=O)O[C@@H]2O[C@@]3(C)CC[C@H]4[C@H](C)CC[C@@H]1[C@@]24OO3 [Compound 62, N-(2-((3R,5aS,6R,8aS, 9R,10S,12R, 12aR)-3,6,9-trimethyldeca-hydro-12H-3,12-epoxy[1,2]dioxepino[4,3-i]isochromen-10-yl)ethyl) methane-sulfonamide]
6.48	< 4.70	C[C@H]1[C@@H](OCc2ccc(C(=O)O)o2)O[C@@H]2O[C@@]3(C)CC[C@H]4[C@H](C)CC[C@@H]1[C@@]24OO3 [Compound 32, 5-((((3R,5aS,6R, 8aS,9R,10S,12R, 12aR)-3,6,9-trimethyldeca-hydro-12H-3,12-epoxy[1,2]dioxepino[4,3-i]isochromen-10-yl)oxy)methyl) furan-2-carboxylic acid]
5.74	< 4.70	C[C@H]1[C@@H](Oc2ccc(C(=O)NCC(=O)O)cc2)O[C@@H]2O[C@@]3(C)CC[C@H]4[C@H](C)CC[C@@H]1[C@@]24OO3 [Compound 142, (4-(((3R,5aS,6R,8aS, 9R,10S,12R, 12aR)-3,6,9-trimethyldeca-hydro-12H-3,12-epoxy[1,2]dioxepino[4,3-i]isochromen-10-yl)oxy)benzoyl) glycine]
5.16	< 4.70	C[C@H]1[C@@H](OCC(=O)N2CCC(C(=O)O)CC2)O[C@@H]2O[C@@]3(C)CC[C@H]4[C@H](C)CC[C@@H]1[C@@]24OO3 [Compound 148, 1-(2-(((3R,5aS,6R,8aS, 9R,10S,12R, 12aR)-3,6,9-trimethyldeca-hydro-12H-3,12-epoxy[1,2]dioxepino[4,3-i]isochromen-10-yl)oxy)acetyl) piperidine-4-carboxylic acid]
5.56	< 4.70	C[C@H]1[C@H](OCCS(C)(=O)=O)O[C@@H]2O[C@@]3(C)CC[C@H]4[C@H](C)CC[C@@H]1[C@@]24OO3 [Compound 53, (3R,5aS,6R,8aS, 9R,10R,12R, 12aR)-3,6,9-trimethyl-10-(2-(methylsulfonyl)ethoxy)deca-hydro-12H-3,12-epoxy[1,2] dioxepino[4,3-i] isochromene]
6.26	6.23	Cc1cc(CN[C@@H]2O[C@@H]3O[C@@]4(C)CC[C@H]5[C@H](C)CC[C@@H]([C@H]2C)[C@@]35OO4)cc(C)n1 [Compound 37, (3R,5aS,6R,8aS, 9R,10R,12R, 12aR)-N-((2,6-dimethylpyridin-4-yl)methyl)-3,6,9-trimethyldeca-hydro-12H-3,12-epoxy[1,2] dioxepino[4,3-i] isochromen-10-amine]
7.10	6.52	C[C@H]1[C@@H](OCC#Cc2ccc(C(=O)O)cc2F)O[C@@H]2O[C@@]3(C)CC[C@H]4[C@H](C)CC[C@@H]1[C@@]24OO3 [Compound 165, 3-fluoro-4-(3-(((3R,5aS,6R,8aS, 9R,10S,12R, 12aR)-3,6,9-trimethyldeca-hydro-12H-3,12-epoxy[1,2]dioxepino[4,3-i]isochromen-10-yl)oxy)prop-1-yn-1-yl) benzoic acid]
5.15	< 4.70	C[C@H]1[C@@H](Oc2ccc(C(F)(F)C(=O)O)cc2)O[C@@H]2O[C@@]3(C)CC[C@H]4[C@H](C)CC[C@@H]1[C@@]24OO3 [Compound 171, 2,2-difluoro-2-(4-(((3R,5aS,6R,8aS, 9R,10S,12R, 12aR)-3,6,9-trimethyldeca-hydro-12H-3,12-epoxy[1,2]dioxepino[4,3-i]isochromen-10-yl)oxy)phenyl) acetic acid]
6.05	< 4.70	C[C@H]1[C@@H](OC[C@H]2CC[C@H](C(=O)O)CC2)O[C@@H]2O[C@@]3(C)CC[C@H]4[C@H](C)CC[C@@H]1[C@@]24OO3 [Compound 43, (1S,4r)-4-((((3R,5aS,6R, 8aS,9R,10S,12R, 12aR)-3,6,9-trimethyldeca-hydro-12H-3,12-epoxy[1,2]dioxepino[4,3-i]isochromen-10-yl)oxy)methyl) cyclohexane-1-carboxylic acid]
